Results published in patent EP4434996A1, “MICELLES IN CANCER TREATMENT” (Commissariat à l'Energie Atomique et aux Energies …, priority 2023, dated 2024).
“Also recorded” adds a separate entry of the source.

Experiments:
[1] = Detection of singlet oxygen with DPBF under 740 nm irradiation; assay type: physicochemical
Description: Preparation of DPBF@C18-PEG2k and TPBC@C18-PEG2k. To a solution of C18-Fc-PEG2k (10 mg mL^-1) in water (1 mL) was added a solution of TPBC (bacteriochlorin) or DPBF (1,3-diphenylisobenzofuran) (12.5 µL, 1 mg mL^-1) in chloroform (1 mL). The mixture was sonicated using an ultrasound sonicator probe (power 40%, 10 min, pulse) allowing TPBC or DPBF to be gradually encapsulated by evaporation of chloroform via heating of the probe. The resulting TPBC/DPBF@C18-Fc-PEG2k colloidal suspension was filtered on 0.45 µm nylon membrane to eliminate any free TPBC or DPBF from the medium.
Preparation of TPBC-DPBF@C18-PEG2k. To a solution of C18-Fc-PEG2k (10 mg mL^-1) in water (1 mL) was added a solution of TPBC (12.5 µL, 1 mg mL^-1) in chloroform (1 mL). The mixture was sonicated using an ultrasound sonicator probe (power 40%, 10 min, pulse) allowing TPBC to be gradually encapsulated by evaporation of chloroform via heating of the probe. […]
1,3-Diphenylisobenzofuran (DPBF) is a reagent for detecting singlet oxygen. […] The reaction was monitored using UV-vis spectroscopy (Fig. 8B). […]
First, we ensured that both TPBC and DPBF could be encapsulated into our C18-PEG2k micelles individually. […] TPBC-DPBF@C18-PEG2k was then irradiated under 740 nm light and the photoreaction was monitored by UV-vis spectroscopy every 20 sec (Fig. 9C).

[2] = Solubility in water by UV measurement; assay type: physicochemical; conditions: without micelles

stability of DPBF under NIR light ([1]; in DMSO, several minutes, without TPBC)	time to complete degradation of DPBF ([1]; DPBF and TPBC in DMSO) [s]	SMILES	solubility in water [2]
no alteration was observed	–	c1ccc(-c2oc(-c3ccccc3)c3ccccc23)cc1 [DPBF, 1,3-diphenylisobenzofuran]	not soluble in water; also recorded: insoluble in water
–	60	c1ccc(-c2c3nc(c(-c4ccccc4)c4ccc([nH]4)c(-c4ccccc4)c4nc(c(-c5ccccc5)c5ccc2[nH]5)CC4)CC3)cc1 [TPBC, tetraphenylbacteriochlorin]	not soluble in water; also recorded: insoluble in water
